Measurements from US8597632B2, “Anionic oligosaccharide conjugates” (Glycan Biosciences LLC, priority 2008, dated 2013).
Marks after values point to notes of the source that are not given here.

Tests used:
Type in all cases: in vivo
[1] = system: guinea pig model of asthma; experiment: Guinea pig model of asthma (OVA)
[2] = system: Guinea-pig anaphylaxis; experiment: Guinea-pig anaphylaxis model (OVA); conditions: for % of the animals died (anaphylaxis): 5 mg/kg intranasal 30 min prior to OVA
From the text: Guinea-pig anaphylaxis has for many years been considered the classical example of anaphylaxis, in contrast to other species (e.g. mice) that completely lack anaphylactic responses after allergen inhalation. Anaphylactic shock is believed to be due to liberation of histamine with subsequent contraction of smooth muscle after the inhalation of antigen into the airway and lungs. Contraction of the bronchial musculature completely shuts off the alveoli and prevents exhalation of air, and the animals die of asphyxia. In guinea-pigs allergen doses that are high enough to produce a significant late-phase responses (i.e. cellular eosinophilia, late phase exudation) inevitably also give rise to prior strong acute reactions that are so intense that some animals may die in acute airway constriction.
In this model the guinea pigs were sensitized to ovalbumin (OVA) twice (on days 0 and 7) by an intraperitoneal injection of 0.5 mL saline containing 100 mg Al(OH)3 and 2 μg OVA. Three weeks after the last sensitization, animals were anaesthetized and the exposure of the nasal cavity to allergen was performed by dropping OVA solution at 2 mg/mL into bilateral nasal cavities (20 μl per nasal cavity). For the negative control the animals received sensitization and challenge with saline. The animals are pretreated with either vehicle or drug (anionic oligosaccharide conjugates or Budesonide) 30 min prior to intranasal instillation of OVA. Vehicle or drugs are administered, 25 μl-50 μl/nostril. A comparison of the anionic oligosaccharide conjugates with Budesonide, as the reference compound, is included. In this study Budesonide at 0.65 mg/kg was not effective at preventing anaphylaxis as 70% of the animals in this group died by acute airway constriction.

[3] = system: allergic rhinitis model in the guinea pig; experiment: Allergic rhinitis model in the guinea pig (OVA); conditions: for % inhibition of protein content of the nasal lavage fluid (plasma exudation): 5 mg/kg intranasal 30 min before OVA, 8 hours after challenge; for eosinophil and neutrophil infiltration into nasal lavage fluid: 5 mg/kg, 8 hours after challenge (FIG. 3)
[4] = system: rat model of acute lung injury and ADRS; experiment: Rat model of acute lung injury and ARDS (LPS); conditions: intra-tracheal 0.5 and 2.5 mg/kg, 30 minutes before LPS
From the text: A rat model of acute lung injury and ADRS was used (Jansson, Lung 182:1-9, 2004). The model is based on the understanding that endotoxin found in common pathogens (e.g. bacteria) can lead to the development of ARDS, septic shock and multiple organ dysfunction syndrome in the clinical situation. Lipopolysaccharide (LPS), a component of the outer membrane of gram-negative bacteria is the prototypical example of endotoxin and exposure of the respiratory tract of rats to LPS can be used as a model of acute lung inflammation and ARDS. […]
Excised lung gas volume (ELGV) is measured by Archimedes' principle and is based on the stable amount of air trapped within the excised lungs at a transpulmonary pressure of 0 cmH2O. […] A density determination kit (P3000, Mettler-Toledo GmbH, Sweden) and optional density determination software for the balance were used on the basis of the principle that every solid body immersed in fluid loses weight, and is expressed as g/cm^3. […] ELGV is determined by the difference between bracket weight and lung buoyancy in the liquid. […] Indication of lung tissue edema was calculated by the difference between lung tissue weight outside the beaker and bracket weight. The lung tissue density was determined by the ratio of the lung weight (difference between lung tissue weight outside the beaker and holder weight) and the air volume within the lung (ELGV). […]

[5] = system: mouse model of emphysema; experiment: Mouse model of emphysema / COPD (cigarette smoke)
Experimental: A mouse model of emphysema was used. Acute or chronic exposure of mice to cigarette smoke lead to lung responses that in part mimic the inflammatory and structural changes observed in COPD. In this model male C57Bl/6J mice are subjected to acute or chronic smoke exposure, with normal room air being the control situation. In the acute study mice were exposed to either room air or to the smoke of five cigarettes (approximately 12 mg of tar and 0.9 mg of nicotine) for 20 minutes. In the chronic study mice were exposed to either room air or to the smoke of three cigarettes/day for 5 days/week for 6 months. The 4 groups of mice were then further divided so that mice within each group also received various anionic oligosaccharide conjugates via an inhaled route.
In the acute exposure groups of mice anionic oligosaccharide conjugates were given 30 minutes before exposure to cigarette smoke. Assessment of the efficacy of the drug for mice in the acute exposure groups involved assessment of trolox equivalent anti-oxidant capacity of the bronchoalveolar lavage fluid (BALF) at the end of smoke exposure. The BALF was examined for cytokines and chemokines that are associated with an inflammatory response. The levels of these agents were determined at 4 hours after exposure and at 24 hours after cigarette smoke exposure. A range of cytokines and chemokines was measured. These included: IL-1α, IL-1β, IL-2, IL-3, IL-4, IL-5, IL-6, IL-10, IL-12, RANTES, MIP-1α, cytokine-induced neutrophil chemoattractant (KC), TNF-α and IFN-γ). A differential cell count of the cells in the BALF was also determined.
The animals in the chronic study received the anionic oligosaccharide conjugates (including ID 9) once a day for the duration of the experiment. At the completion of the experiment animals were killed and the lungs fixed intratracheally with formalin (5%) and lung volume was measured by water displacement. […] The level of desmosine in the lung tissue was also determined. […]

[6] = 0.1 mg/kg pretreatment (FIG. 5)
[7] = drug 0.1 mg/kg intra-tracheal, MCh (10 mg/mL)
[8] = drug 0.1 mg/kg intra-tracheal, MCh (30 mg/mL)
[9] = drug 2.5 mg/kg intra-tracheal, MCh (10 mg/mL)
[10] = drug 2.5 mg/kg intra-tracheal, MCh (30 mg/mL)

| Compound | inhibition of OVA induced leukocyte influx in BAL [1, 6] | AHR: Cdyn, % increase from that of the positive control [1, 7] | AHR: RL, % inhibition from that of the positive control [1, 7] | AHR: Cdyn, % increase from that of the positive control [1, 8] | AHR: RL, % inhibition from that of the positive control [1, 8] | AHR: Cdyn, % increase from that of the positive control [1, 9] | AHR: RL, % inhibition from that of the positive control [1, 9] | AHR: Cdyn, % increase from that of the positive control [1, 10] | AHR: RL, % inhibition from that of the positive control [1, 10] | % of the animals died by acute airway constriction ([2]; 0.65 mg/kg intranasal 30 min prior to OVA) | % of the animals died (anaphylaxis) [2] | % inhibition of protein content of the nasal lavage fluid (plasma exudation) [3] | eosinophil and neutrophil infiltration into nasal lavage fluid [3] | inhibition of neutrophil infiltration (BAL) [4] | inhibition of OVA induced leukocyte influx in BAL ([1]; 2.5 mg/kg pretreatment (FIG. 5)) | antigen induced elevated protein content of BAL ([1]; even at 0.1 mg/kg (FIG. 4)) | lung function: development of Cdyn and RL ([1]; methacholine evoked bronchoconstriction, 8 hours after provocation) | numbers of neutrophils in BALF ([5]; acute cigarette smoke exposure) | cellular infiltrate into BALF ([5]; acute cigarette smoke exposure, inhaled 30 minutes before exposure) | anti-inflammatory activity in COPD model ([5]; chronic smoke exposure, once a day) |
| --- | --- | --- | --- | --- | --- | --- | --- | --- | --- | --- | --- | --- | --- | --- | --- | --- | --- | --- | --- | --- |
| CCCC1O[C@@H]2C[C@H]3[C@@H]4CCC5=CC(=O)C=C[C@]5(C)[C@H]4[C@@H](O)C[C@]3(C)[C@]2(C(=O)CO)O1 (some centres unmarked) [Budesonide, reference compound] | 76% | 97.2%** | 86.5%** | 116.2%** | 105%** | 19.7% | −89.4% | 70.9%** | 98.9%** | 70% |  |  |  |  |  |  |  |  |  |  |
| (Maltopentaose)-(Et2)-(Maltopentaose) [ID 7] |  |  |  |  |  |  |  |  |  |  | 27% | 91.4% | only blocked eosinophils |  |  |  |  |  |  |  |
| (Maltopentaose)-Et4-(Maltopentaose) [ID 9] | 62% | 76.6%** | 75.3%* | 90%** | 84.4%** | 68.7%* | 80.5%** | 128.4%** | 99.5%** |  | 35% | 51.5% | particularly effective at blocking not only eosinophil infiltration but also neutrophil infiltration | marked | 85% | very effectively inhibits the elevated protein content of BAL | inhibited the development of both Cdyn and RL | significantly attenuated | decreased the cellular infiltrate into BALF | could act as anti-inflammatory agents |
